Experimental data as given in BindingDB's records for doi:10.1016/s0960-894x(00)00385-1 (Merck Research Laboratories, 2001).

Experiment: Inhibition of aggregation of human gel-filtered platelets measured by light transmittance method at 37 degrees C.

| IC50 | Structure (SMILES) |
| --- | --- |
| 13 nM | O=C(NC[C@H](NS(=O)(=O)c1ccccc1)C(=O)O)c1ccc(OCCC2CCNCC2)cc1 [2-Benzenesulfonylamino-3-[4-(2-piperidin-4-yl-ethoxy)-benzoylamino]-propionic acid] |
| 51 nM | C#CC(CCCN1CCC[C@@H](CCC2CCNCC2)C1=O)CC(=O)O (stereo partly drawn) [3-Ethynyl-6-[(R)-2-oxo-3-(2-piperidin-4-yl-ethyl)-piperidin-1-yl]-hexanoic acid] |
| 15 nM | C#CC(CC(=O)O)NC(=O)CN(C(=O)c1cccc(C2CCNCC2)c1)C1CC1 (stereo not drawn) [3-{2-[Cyclopropyl-(3-piperidin-4-yl-benzoyl)-amino]-acetylamino}-pent-4-ynoic acid] |
| 65 nM | CC(CC(=O)O)NC(=O)c1ccc2c(c1)C(=O)N(CCC1CCNCC1)C2 (stereo not drawn) [3-{[3-Oxo-2-(2-piperidin-4-yl-ethyl)-2,3-dihydro-1H-isoindole-5-carbonyl]-amino}-butyric acid] |
| 57 nM | C[C@@H](/C=C/CN1CCC[C@@H](CCC2CCNCC2)C1=O)CC(=O)O [(E)-(R)-3-Methyl-6-[(R)-2-oxo-3-(2-piperidin-4-yl-ethyl)-piperidin-1-yl]-hex-4-enoic acid] |
| 35 nM | O=C(CN1CCc2ccc(N3CCNCC3)cc2C1=O)NC[C@H](NS(=O)(=O)c1ccccc1)C(=O)O [(S)-2-Benzenesulfonylamino-3-[2-(1-oxo-7-piperazin-1-yl-3,4-dihydro-1H-isoquinolin-2-yl)-acetylamino]-propionic acid] |
| 10 nM | O=C(NC[C@H](NS(=O)(=O)c1ccccc1)C(=O)O)c1cc2cc(OCCC3CCNCC3)ccc2[nH]1 [(S)-2-Benzenesulfonylamino-3-{[5-(2-piperidin-4-yl-ethoxy)-1H-indole-2-carbonyl]-amino}-propionic acid] |
| 28 nM | C#C[C@H](CC(=O)O)NC(=O)CN1CCC[C@@H](CCc2ccnc(N)c2)C1=O [(S)-3-(2-{(R)-3-[2-(2-Amino-pyridin-4-yl)-ethyl]-2-oxo-piperidin-1-yl}-acetylamino)-pent-4-ynoic acid] |
| 9 nM | O=C(O)C[C@H](NC(=O)C[C@H]1CCCN(CCC2CCNCC2)C1=O)c1cccnc1 [(S)-3-{2-[(R)-2-Oxo-1-(2-piperidin-4-yl-ethyl)-piperidin-3-yl]-acetylamino}-3-pyridin-3-yl-propionic acid] |
| 15 nM | C#C[C@H](CC(=O)O)NC(=O)C[C@H]1CCCN(CCC2CCNCC2)C1=O [(S)-3-{2-[(R)-2-Oxo-1-(2-piperidin-4-yl-ethyl)-piperidin-3-yl]-acetylamino}-pent-4-ynoic acid] |
| 81 nM | O=C(O)C[C@@H](CO)NC(=O)CN1CCc2ccc(N3CCNCC3)cc2C1=O [(S)-4-Hydroxy-3-[2-(1-oxo-7-piperazin-1-yl-3,4-dihydro-1H-isoquinolin-2-yl)-acetylamino]-butyric acid] |

Continued, compound first:

| Structure (SMILES) | IC50 |
| --- | --- |
| O=C(O)CCNC(=O)CN1CCc2ccc(N3CCNCC3)cc2C1=O [3-[2-(1-Oxo-7-piperazin-1-yl-3,4-dihydro-1H-isoquinolin-2-yl)-acetylamino]-propionic acid] | 140 nM |
| C[C@H](CC(=O)O)NC(=O)CN1CCC[C@@H](CCC2CCNCC2)C1=O [3-{2-[2-Oxo-3-(2-piperidin-4-yl-ethyl)-piperidin-1-yl]-acetylamino}-butyric acid (L-734217)] | 32 nM |
| O=C(CN1CCC[C@@H](CCC2CCNCC2)C1=O)NC[C@H](NS(=O)(=O)c1ccccc1)C(=O)O [(S)-2-Benzenesulfonylamino-3-{2-[(R)-2-oxo-3-(2-piperidin-4-yl-ethyl)-piperidin-1-yl]-acetylamino}-propionic acid] | 11 nM |
| O=C(NC[C@H](NS(=O)(=O)c1ccccc1)C(=O)O)c1ccc2c(c1)C(=O)N(CCC1CCNCC1)C2 [(S)-2-Benzenesulfonylamino-3-{[3-oxo-2-(2-piperidin-4-yl-ethyl)-2,3-dihydro-1H-isoindole-5-carbonyl]-amino}-propionic acid] | 8 nM |
| C#C[C@H](CC(=O)O)NC(=O)C[C@H]1CCCN(CCc2ccnc(N)c2)C1=O [(S)-3-(2-{(R)-1-[2-(2-Amino-pyridin-4-yl)-ethyl]-2-oxo-piperidin-3-yl}-acetylamino)-pent-4-ynoic acid] | 19 nM |
| C#C[C@H](CC(=O)O)NC(=O)c1ccc2c(c1)C(=O)N(CCc1ccnc(N)c1)C2 [(S)-3-({2-[2-(2-Amino-pyridin-4-yl)-ethyl]-3-oxo-2,3-dihydro-1H-isoindole-5-carbonyl}-amino)-pent-4-ynoic acid] | 27 nM |
| O=C(O)C[C@H](NC(=O)CN1CCc2ccc(N3CCNCC3)cc2C1=O)c1cccnc1 [(S)-3-[2-(1-Oxo-7-piperazin-1-yl-3,4-dihydro-1H-isoquinolin-2-yl)-acetylamino]-3-pyridin-3-yl-propionic acid] | 13 nM |
| O=C(O)C[C@H](NC(=O)CN1CCC[C@@H](CCC2CCNCC2)C1=O)c1cccnc1 [(S)-3-{2-[(R)-2-Oxo-3-(2-piperidin-4-yl-ethyl)-piperidin-1-yl]-acetylamino}-3-pyridin-3-yl-propionic acid] | 10 nM |
| C#C[C@H](CC(=O)O)NC(=O)CN1CCC[C@@H](CCC2CCNCC2)C1=O [(S)-3-{2-[(R)-2-Oxo-3-(2-piperidin-4-yl-ethyl)-piperidin-1-yl]-acetylamino}-pent-4-ynoic acid] | 13 nM |
| Cc1ccc(S(=O)(=O)N[C@@H](CNC(=O)c2cc3n(n2)CCCN(CCC2CCNCC2)C3=O)C(=O)O)cc1 [(S)-3-{[4-Oxo-5-(2-piperidin-4-yl-ethyl)-5,6,7,8-tetrahydro-4H-1,5,8a-triaza-azulene-2-carbonyl]-amino}-2-(toluene-4-sulfonylamino)-propionic acid] | 8 nM |
| O=C(O)C[C@@H](CO)NC(=O)c1ccc2c(c1)C(=O)N(CCC1CCNCC1)C2 [(S)-4-Hydroxy-3-{[3-oxo-2-(2-piperidin-4-yl-ethyl)-2,3-dihydro-1H-isoindole-5-carbonyl]-amino}-butyric acid] | 8 nM |
| C#C[C@H](CC(=O)O)NC(=O)CN1CCc2ccc(N3CCNCC3)cc2C1=O [L-767679] | 15 nM |
